Source: ChEMBL document CHEMBL1201862, “PubChem BioAssay data set” (2004)
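Cells were grown in 96-well plates and exposed to each compound for 48 hours at five concentrations; endpoints were interpolated linearly between bracketing concentrations, or set to the highest concentration if not reached. GI50 is the concentration that inhibits growth by half.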 Calls of active or inactive are those of the source. Cut-off read from the data, not from the text of the source: active = GI50 up to about 1.1 µM and inactive = higher.

How the values were obtained:
Experiment in all cases: NCI anticancer screen, dose series, 48 h
A498 = tested on: A498
A549 = tested on: A549
ACHN = tested on: ACHN
CAKI-1 = tested on: CAKI-1
COLO 205 = tested on: COLO 205
IGROV-1 = tested on: IGROV-1
KM12 = tested on: KM12
MDA-MB-435 = tested on: MDA-MB-435
MOLT-4 = tested on: MOLT-4
OVCAR-3 = tested on: OVCAR-3
PC-3 = tested on: PC-3
RPMI-8226 = tested on: RPMI-8226
RXF 393 = tested on: RXF 393
SF-268 = tested on: SF-268
SN12C = tested on: SN12C
SNB-19 = tested on: SNB-19
UACC-257 = tested on: UACC-257
UACC-62 = tested on: UACC-62
MDA-N = tested on: MDA-N

Row | SMILES | GI50 (A498) | GI50 (A549) | GI50 (ACHN) | GI50 (CAKI-1) | GI50 (COLO 205) | GI50 (IGROV-1) | GI50 (KM12) | GI50 (MDA-MB-435) | GI50 (MOLT-4) | GI50 (OVCAR-3) | GI50 (PC-3) | GI50 (RPMI-8226) | GI50 (RXF 393) | GI50 (SF-268) | GI50 (SN12C) | GI50 (SNB-19) | GI50 (UACC-257) | GI50 (UACC-62) | GI50 (MDA-N)
1 | COc1ccc2[nH]c(C(O)(Cc3cccnc3)Cc3cccnc3)cc2c1 | > 100 µM (inactive) | > 100 µM (inactive) | > 100 µM (inactive) | > 100 µM (inactive) | > 100 µM (inactive) | > 100 µM (inactive) | > 100 µM (inactive) | > 100 µM (inactive) | > 100 µM (inactive) | > 100 µM (inactive) | > 100 µM (inactive) | > 100 µM (inactive) | > 100 µM (inactive) | > 100 µM (inactive) | > 100 µM (inactive) | > 100 µM (inactive) | > 100 µM (inactive) | > 100 µM (inactive) | –
2 | COc1ccc2o/c(=N/c3ccccc3)c(C(N)=O)cc2c1 | – | > 55.3 µM (inactive) | 19 µM (inactive) | > 71.3 µM (inactive) | > 100 µM (inactive) | > 70.6 µM (inactive) | > 100 µM (inactive) | 3.45 µM (inactive) | > 100 µM (inactive) | > 100 µM (inactive) | > 100 µM (inactive) | > 100 µM (inactive) | 39.5 µM (inactive) | 47.3 µM (inactive) | > 100 µM (inactive) | – | > 100 µM (inactive) | – | 6.84 µM (inactive)
3 | O=C(O)c1ccn(-c2cccc(-n3ccc(C(=O)O)n3)n2)n1 | – | > 100 µM (inactive) | > 100 µM (inactive) | > 100 µM (inactive) | > 100 µM (inactive) | > 100 µM (inactive) | > 100 µM (inactive) | > 100 µM (inactive) | > 100 µM (inactive) | > 100 µM (inactive) | > 100 µM (inactive) | > 100 µM (inactive) | > 100 µM (inactive) | > 100 µM (inactive) | > 100 µM (inactive) | > 100 µM (inactive) | > 100 µM (inactive) | > 100 µM (inactive) | > 100 µM (inactive)
4 | CCNC(=S)N/N=C/c1cc(OC)ccc1O | – | 52.8 µM (inactive) | 66.7 µM (inactive) | – | > 100 µM (inactive) | 82.4 µM (inactive) | 88.1 µM (inactive) | 64.6 µM (inactive) | 67.1 µM (inactive) | 6.38 µM (inactive) | 56.2 µM (inactive) | – | > 100 µM (inactive) | 8.43 µM (inactive) | > 100 µM (inactive) | > 100 µM (inactive) | > 100 µM (inactive) | 99.1 µM (inactive) | > 100 µM (inactive)
5 | COc1ccccc1NC(=S)N/N=C(/C)c1ccccn1 | – | < 0.0274 µM (active) | < 0.0106 µM (active) | 0.0132 µM (active) | < 0.0119 µM (active) | < 0.01 µM (active) | 0.117 µM (active) | 0.968 µM (active) | < 0.01 µM (active) | < 0.01 µM (active) | < 0.01 µM (active) | < 0.01 µM (active) | 0.658 µM (active) | < 0.0124 µM (active) | 0.178 µM (active) | 6.19 µM (inactive) | < 0.01 µM (active) | 0.238 µM (active) | 0.637 µM (active)
6 | CC(C(O)Cc1ccccc1)N(C)/N=N/c1ccc([N+](=O)[O-])cc1 (stereo not given) | – | 23.1 µM (inactive) | 25.6 µM (inactive) | 21.9 µM (inactive) | 21.2 µM (inactive) | 19.4 µM (inactive) | 21.7 µM (inactive) | 18.9 µM (inactive) | 18.2 µM (inactive) | 14.8 µM (inactive) | 18.3 µM (inactive) | 16.9 µM (inactive) | 1.19 µM (inactive) | 21 µM (inactive) | 22 µM (inactive) | 39.4 µM (inactive) | 21.4 µM (inactive) | 18.8 µM (inactive) | 19.3 µM (inactive)
7 | Nc1ncc2ncn(C3CCC(CO)O3)c2n1 (stereo not given) | 88.7 µM (inactive) | > 100 µM (inactive) | > 100 µM (inactive) | > 100 µM (inactive) | > 100 µM (inactive) | > 100 µM (inactive) | > 100 µM (inactive) | > 100 µM (inactive) | > 100 µM (inactive) | > 100 µM (inactive) | > 100 µM (inactive) | > 100 µM (inactive) | – | > 100 µM (inactive) | > 100 µM (inactive) | > 100 µM (inactive) | > 100 µM (inactive) | > 100 µM (inactive) | > 100 µM (inactive)
8 | CC(=O)c1c2c(cc3c1CCC3)CCC2 | 36.5 µM (inactive) | > 100 µM (inactive) | > 100 µM (inactive) | > 100 µM (inactive) | > 100 µM (inactive) | > 100 µM (inactive) | > 100 µM (inactive) | > 100 µM (inactive) | 20.6 µM (inactive) | > 100 µM (inactive) | 55.3 µM (inactive) | 76 µM (inactive) | – | > 100 µM (inactive) | > 100 µM (inactive) | > 100 µM (inactive) | > 100 µM (inactive) | > 100 µM (inactive) | > 100 µM (inactive)
